Series [1] concerns the target ATP-dependent translocase ABCB1 (Homo sapiens, UniProt P08183). Put plainly: TP_TRANSPORTER: intracellular accumulation in KB cell and KB-VJ300 cells. The class given is functional, cell-based.
For series [2], the target named is ATP-dependent translocase ABCB1 (Mus musculus, UniProt P21447). Put plainly: TP_TRANSPORTER: increase in brain concentration in mdr1a(-/-) mouse. The class given is functional, organism-based. The following applies: in vivo.
Sequence of ATP-dependent translocase ABCB1 (Mus musculus, UniProt P21447) (P21447 whole entry): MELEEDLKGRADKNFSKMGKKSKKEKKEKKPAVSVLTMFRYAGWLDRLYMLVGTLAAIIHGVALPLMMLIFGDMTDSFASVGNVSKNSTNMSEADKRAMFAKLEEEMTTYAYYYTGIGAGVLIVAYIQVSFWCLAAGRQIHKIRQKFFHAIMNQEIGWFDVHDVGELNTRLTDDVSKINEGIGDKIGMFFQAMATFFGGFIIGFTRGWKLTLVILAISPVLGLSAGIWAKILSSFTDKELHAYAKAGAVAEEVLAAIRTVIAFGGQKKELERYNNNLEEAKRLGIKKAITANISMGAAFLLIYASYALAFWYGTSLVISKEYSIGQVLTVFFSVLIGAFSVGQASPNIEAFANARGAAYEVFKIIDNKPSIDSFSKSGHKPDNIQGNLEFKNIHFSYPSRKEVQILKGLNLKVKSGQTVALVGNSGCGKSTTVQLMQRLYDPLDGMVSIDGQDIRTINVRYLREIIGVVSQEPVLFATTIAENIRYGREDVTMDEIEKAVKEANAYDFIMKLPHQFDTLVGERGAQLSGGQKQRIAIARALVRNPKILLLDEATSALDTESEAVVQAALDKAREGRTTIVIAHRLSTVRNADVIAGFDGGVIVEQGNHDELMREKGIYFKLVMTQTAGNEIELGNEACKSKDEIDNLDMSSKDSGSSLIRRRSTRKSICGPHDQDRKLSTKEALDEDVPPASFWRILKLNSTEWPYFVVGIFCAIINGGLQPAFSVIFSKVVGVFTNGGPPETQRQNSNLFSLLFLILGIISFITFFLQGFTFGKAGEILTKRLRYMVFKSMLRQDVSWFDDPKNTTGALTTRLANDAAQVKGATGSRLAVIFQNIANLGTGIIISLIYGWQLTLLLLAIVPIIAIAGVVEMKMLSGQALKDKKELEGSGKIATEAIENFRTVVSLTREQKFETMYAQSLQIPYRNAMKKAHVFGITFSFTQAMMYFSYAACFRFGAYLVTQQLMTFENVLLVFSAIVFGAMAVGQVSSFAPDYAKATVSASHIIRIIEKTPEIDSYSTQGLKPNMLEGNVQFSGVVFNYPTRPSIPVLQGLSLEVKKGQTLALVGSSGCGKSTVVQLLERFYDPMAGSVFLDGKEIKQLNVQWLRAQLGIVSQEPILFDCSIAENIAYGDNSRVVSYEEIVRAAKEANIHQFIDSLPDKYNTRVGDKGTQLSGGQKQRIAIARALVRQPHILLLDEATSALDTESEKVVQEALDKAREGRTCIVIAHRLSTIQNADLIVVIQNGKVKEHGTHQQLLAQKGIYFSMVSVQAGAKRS

Sequence of ATP-dependent translocase ABCB1 (Homo sapiens, UniProt P08183) (P08183 whole entry): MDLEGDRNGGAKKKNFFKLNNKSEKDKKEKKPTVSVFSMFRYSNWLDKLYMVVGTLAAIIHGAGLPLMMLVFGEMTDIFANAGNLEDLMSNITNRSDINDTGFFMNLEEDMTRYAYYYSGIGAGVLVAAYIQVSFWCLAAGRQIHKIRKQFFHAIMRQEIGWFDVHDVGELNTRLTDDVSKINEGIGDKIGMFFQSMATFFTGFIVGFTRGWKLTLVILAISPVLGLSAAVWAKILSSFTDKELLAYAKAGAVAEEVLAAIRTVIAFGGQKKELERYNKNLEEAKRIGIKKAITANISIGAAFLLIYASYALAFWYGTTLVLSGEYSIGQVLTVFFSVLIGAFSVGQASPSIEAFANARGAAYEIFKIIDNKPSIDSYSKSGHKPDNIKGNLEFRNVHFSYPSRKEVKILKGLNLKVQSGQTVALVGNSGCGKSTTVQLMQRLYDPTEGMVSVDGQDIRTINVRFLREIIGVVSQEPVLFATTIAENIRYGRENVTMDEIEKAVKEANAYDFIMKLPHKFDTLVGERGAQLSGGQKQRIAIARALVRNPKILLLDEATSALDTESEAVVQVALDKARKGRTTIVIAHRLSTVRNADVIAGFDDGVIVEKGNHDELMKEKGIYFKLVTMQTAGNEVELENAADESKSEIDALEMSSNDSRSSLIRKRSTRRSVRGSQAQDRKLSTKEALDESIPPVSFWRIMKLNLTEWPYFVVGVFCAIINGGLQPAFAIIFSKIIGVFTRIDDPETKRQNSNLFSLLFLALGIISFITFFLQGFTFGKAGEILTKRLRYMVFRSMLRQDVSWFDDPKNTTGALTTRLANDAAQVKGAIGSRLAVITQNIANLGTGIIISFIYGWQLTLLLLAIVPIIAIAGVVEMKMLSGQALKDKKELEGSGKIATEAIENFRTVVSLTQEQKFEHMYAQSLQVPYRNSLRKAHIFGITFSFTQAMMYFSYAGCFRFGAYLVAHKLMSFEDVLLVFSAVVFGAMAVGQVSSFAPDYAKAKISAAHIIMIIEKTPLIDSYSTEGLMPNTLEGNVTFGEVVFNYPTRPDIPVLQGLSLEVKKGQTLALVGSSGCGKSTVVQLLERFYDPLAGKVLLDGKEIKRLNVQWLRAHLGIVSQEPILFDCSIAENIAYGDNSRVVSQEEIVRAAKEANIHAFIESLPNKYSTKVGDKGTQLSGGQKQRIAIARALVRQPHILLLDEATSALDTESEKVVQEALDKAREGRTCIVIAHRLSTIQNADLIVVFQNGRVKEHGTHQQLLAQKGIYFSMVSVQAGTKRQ

With `CC(C)(C)NCC(O)COc1ccccc1C#N` (configuration not stated) [BUNITROLOL], the Activity entry in series [1] and in series [2] was “substrate [+]” throughout.

The record behind these values is ChEMBL document CHEMBL2073756, “Contribution of P-glycoprotein to bunitrolol efflux across blood-brain barrier” (Biopharm Drug Dispos, 1999).
